Reference: the METLIN SMRT retention time set (Domingo-Almenara et al. 2019)

Assay: gradient 5% acetonitrile 3 min, to 50% in 2 min, to 85% in 15 min, held 3 min, 100 µL/min
Conditions: column: Zorbax Extend-C18 2.1 x 50 mm; eluents: water / acetonitrile, 0.1% formic acid
Summary of the method: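 Data were gathered over 3 months by HPLC coupled to a quadrupole time-of-flight mass spectrometer, operated in positive and negative ionization mode. Mixtures of ~100 pure standards ran on a Zorbax Extend-C18 column (2.1 × 50 mm, 1.8 μm) at 100 μL/min, with water and acetonitrile each containing 0.1% formic acid and dead and dwell volumes of 40 μL and 900 μL. Retention time was read from adduct peaks picked by computer and checked manually.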

Structure (SMILES) | RP-LC retention time [s]
CCOc1ccc(-c2csc(C)n2)cc1S(=O)(=O)N1CCN(c2ccc(OC)cc2)CC1 | 1060
O=C(C1CCN(c2ccc(Sc3ccc(Cl)cc3)nn2)CC1)N1CCN(c2ncccn2)CC1 | 801
COc1ccc(C(=O)NCCc2c[nH]c3ccc(Cl)cc23)cc1OC | 817
CC(C)n1cc(S(=O)(=O)Nc2ccc(F)cc2Cl)c2cccnc21 | 989
COc1ccc2c(c1)c(CC(=O)O)c(C)n2Cc1ccc(Cl)cc1 | 1060
CCOC(=O)c1ccc2nc(NC(=O)c3cccc([N+](=O)[O-])c3)sc2c1 | 959
Cc1ccc(NS(=O)(=O)c2cc(-c3[nH]ncc3C(=O)N3CCCCC3)oc2C)cc1 | 773
CNC(=O)C1CCCN(C(=O)Nc2ccc(NC(=O)Nc3ccc(C)c(C)c3)cc2)C1 (configuration not stated) | 722
O=C(Cc1cccc(F)c1)NCC(=O)Nc1nc2ccccc2[nH]1 | 623
CC1Cc2cc(S(=O)(=O)N3CCC(C(N)=O)(N4CCCCC4)CC3)ccc2N1C(=O)C1CC1 (configuration not stated) | 630
COc1ccc(-c2csc(NC(=O)c3ccc([N+](=O)[O-])cc3)n2)cc1 | 1070
Cc1ccccc1CNC(=O)c1ccc(CN2CCN(Cc3ccccc3)C(=O)C2=O)cc1 | 797
O=C(c1cccc(N2C(=O)CCS2(=O)=O)c1)N1CCN(c2ccccn2)CC1 | 726
CC(=O)c1ccn(S(=O)(=O)c2ccc(C)cc2)c1 | 804
Cc1ccccc1NC(=O)C1CCCN(C(=O)c2nn(C)c3c2CN(C(=O)CC2CCCC2)CC3)C1 (configuration not stated) | 877
Cc1ccc2cc(CCC(=O)NCCCN3CCCC(C)C3)c(=O)[nH]c2c1 (configuration not stated) | 605
COc1ccc(NC(=O)c2sc3[nH]c(=O)c(C(=O)O)cc3c2N)c(OC)c1 | 681
CCN(CC)CCCNc1ncnc2c1cnn2-c1ccc(C)c(C)c1 | 663
COC(=O)c1cccc(NC(=O)NCCCn2c(C(F)(F)F)nc3cccnc32)c1 | 773
CCC(C(=O)NCCc1c[nH]c2ccc(OC)cc12)n1nc(C)c2nn(-c3ccccc3)c(C)c2c1=O (configuration not stated) | 895
COc1ccc2c(CCNC(=O)c3ccccc3OC)c[nH]c2c1 | 788
NC(=O)COC1CCC12CCN(C(=O)C1CCCCC1)CC2 (configuration not stated) | 715
CCOC(=O)CN1C(=O)CC(C[C@@H](O)C2C[C@@H](C)C[C@H](C)C2=O)CC1=O (some centres not stated) | 821

Structure (SMILES) | RP-LC retention time [s]
COc1ccc(N2CCN(c3cc(SCC(=O)NC4CCCCC4)ncn3)CC2)cc1 | 875
O=C1NCCCCCCN(C(=O)C2CCCCC2)[C@H]2C[C@H](C(=O)N3CCc4ccccc4C3)C[C@@H]12 | 924
Cn1cc(-c2cc3n(n2)CCCN3C(=O)CCC(=O)NCc2ccccc2)c2ccccc21 | 804
N#CCCSc1ccccc1NC(=O)c1ccc(S(=O)(=O)N2CCOCC2)cc1 | 760
CCOc1ccc(CN2C(=O)C3(CCOCC3)CC2c2nnnn2C(C)(C)C)cc1OC (configuration not stated) | 754
CCOc1ccc2ncc(C(=O)c3ccccc3)c(N3CCN(CC)CC3)c2c1 | 591
CCCNC(=O)c1cc2c(s1)N(C)CCC2 | 771
COc1cccc(N2CCN(S(=O)(=O)c3cc(-c4csc(C)n4)ccc3C)CC2)c1 | 1190
CCN1C(=O)c2cc(S(=O)(=O)NCc3ccccc3C)ccc2Oc2cccnc21 | 1020
COc1cn(C)c(C(=O)NCCC(c2ccccc2)c2ccccc2)cc1=O | 667
Cc1ccc(-c2csc(-n3nc(C)c(CC(=O)Nc4ccc(C)c(C)c4)c3C)n2)cc1 | 1310
Cc1ccc(N2C(=O)N(Cc3cccc(F)c3)S(=O)(=O)c3cccnc32)cc1 | 1080
CC(C)N(Cc1ccccc1)C(=O)CN1C(=O)CCc2cc(S(=O)(=O)N3CCCCC3C)ccc21 (configuration not stated) | 1060
Cc1cnn(CCC(=O)N2CCCn3ccnc3C2C2CCCC2)c1 (configuration not stated) | 611
Cc1nnc(N2CCCC(C(=O)NCCN3CCOCC3)C2)c2nn(-c3ccc(Cl)cc3)c(C)c12 (configuration not stated) | 590
CCCn1cnc2cc(CNC(=O)c3ccc(C(C)(C)C)cc3)ccc21 | 720
CCOC(=O)C1CCN(C(=O)CCC(=O)N2CCCn3nc(C)cc32)CC1 | 646
CN(CCNC(=O)c1cccc(N2CCNC(c3ccccc3)C2)n1)C1CCCCC1 (configuration not stated) | 573
O=C(CCC(=O)N1CC(n2cnnc2C2CCOCC2)C1)N1CCOCC1 | 550
COc1ccc(-c2nc3cnc(Br)cn3c2Nc2ccc(OC)c(OC)c2)cc1 | 852
COc1ccc2c(c1)CCc1sc(NC(=O)c3cc(OC)c(OC)c(OC)c3)nc1-2 | 1080
O=C(c1cc(C2CC2)[nH]n1)N1CC(n2cc(COCc3ccccc3)nn2)C1 | 730
O=C(NCCC1=CCCCC1)c1cccc(CN2C(=O)C3CCCN3C(=O)c3ccccc32)c1 (configuration not stated) | 890

Other lines, results leading:

RP-LC retention time [s] | Structure (SMILES)
680 | CCC1CCCCN1C(=O)c1cnc2nc(C)ccc2c1Nc1ccc(F)c(C)c1 (configuration not stated)
615 | O=C(Cn1c(-c2cnccn2)nc2ccccc21)N1CCN(C(=O)c2ccco2)CC1
869 | Cc1ccc(CNC(=O)c2ccc(-c3cccs3)nc2)o1
799 | CC(C)OC(=O)Cn1c(C2CC(=O)N(Cc3ccccc3)C2)nc2ccccc21 (configuration not stated)
808 | CSc1nnc(NC(=O)c2cc(Cl)ccc2Cl)s1
1110 | Cc1cc(NC(=O)C2CCCN(S(=O)(=O)c3cc(-c4noc(C5CCCC5)n4)cs3)C2)no1 (configuration not stated)
1020 | O=C(Nc1ccc(Cl)cc1F)c1cccn1Cc1noc(C2CC2)n1
559 | CN(C)[C@@H]1CN(C(=O)c2cccc(Cl)c2)C[C@H]1CO
1010 | CCc1noc(-c2ccc(-n3ncc(C(=O)N4CCCCCC4)c3C)nc2)n1
777 | O=c1c(=O)n(-c2ccccc2)ccn1Cc1nc(-c2ccccc2)no1
818 | COc1ccc(CNC(=O)Cn2c(C)cc(-c3nnc(C4CCC4)o3)c2C)cc1
972 | Cc1ccc(F)cc1NC(=O)Cn1nc2cc(-c3ccccc3)nc(C)n2c1=O
806 | COCCNC(=O)NC1CCN(c2nc3cccnc3n(Cc3ccccc3)c2=O)CC1
670 | Cc1noc(C2CN(C(=O)NC(C)(C)C)CC23CCOCC3)n1 (configuration not stated)
871 | CCOC(=O)N1CCC2(CC1)N=C(c1ccc(Cl)cc1)CC(c1cccc(OCC)c1O)N2 (configuration not stated)
733 | O=C(Cc1nnc(-c2ccc3ncccc3c2)o1)NCc1ccc(F)c(Cl)c1
662 | CC(C)NC(=O)c1cccnc1N1CCSCC1
693 | COc1ccc(C(=O)NCc2c(C)noc2C)c(OC)c1
1160 | O=C(Nc1ccc(F)cc1)C1CCCN(S(=O)(=O)c2cc(-c3noc(C4CCC4)n3)cs2)C1 (configuration not stated)
741 | COCCn1c(CCCC(=O)NCc2ccc(C(C)C)cc2)nc2cccnc21
791 | CCn1nccc1-c1cccc(-c2noc(CNC(=O)c3ccco3)n2)c1

RP-LC retention time [s] | Structure (SMILES)
899 | Cc1noc(-c2ccc(OC3CN(C(=O)C(C)Oc4ccccc4)C3)cc2)n1 (configuration not stated)
622 | Cc1cc(N2CCN(C(=O)Cc3ccccc3Br)CC2)nc2nncn12
642 | Cc1cccc(NC(=O)C2CCN(S(=O)(=O)c3c(C)[nH]c(C)c3C(=O)N3CCCCC3)CC2)n1
688 | Cn1c(-c2cccc(C(=O)NCc3cccs3)c2)nc2cccnc21
679 | CSc1cccc(NC(=O)N2CCC(c3cc(=O)n4nccc4n3C)CC2)c1
936 | COc1cccc(-c2noc(C3CC(=O)N(c4cccc(Cl)c4)C3)n2)c1OC (configuration not stated)
710 | COc1ccc(CNC(=O)NCCc2nc3cccnc3n2Cc2ccccc2)cc1
583 | Cc1cc(CN2CCC(CNC(=O)C(=O)NCc3ccc4c(c3)OCO4)CC2)c(C)o1
1030 | CCOC(=O)c1ccccc1NC(=O)Cn1cccc(-c2nc(-c3ccccc3)no2)c1=O
815 | CCc1noc(-c2ccnc(-n3ncc(C(=O)NC4CC4)c3C)c2)n1
1320 | CCCOc1nc2ccccc2nc1N1CCCC(C(=O)Nc2ccccc2CC)C1 (configuration not stated)
1170 | CCc1nc2cc(-c3noc(Cc4cccc(C(F)(F)F)c4)n3)ccc2o1
780 | CCN1c2cc(F)ccc2C(=O)NC12CCN(C(=O)c1ccc(OC)cc1)CC2
572 | CC(NC(=O)c1ccc2nc(-c3ccccc3)cn2c1)c1ccccn1 (configuration not stated)
657 | CCNC(=O)C1CCCN(c2nc3ncn(CC(=O)Nc4ccc(F)cc4)c(=O)c3s2)C1 (configuration not stated)
1100 | O=C(NCc1cccs1)C1CCCN(c2nc3ccccc3n(Cc3ccccc3)c2=O)C1 (configuration not stated)
814 | Cc1c(C(=O)Nc2c3c(nn2C(C)(C)C)CSC3)cccc1[N+](=O)[O-]
732 | CNC(=O)c1noc([C@@H]2CC(F)(F)CN2Cc2ccco2)n1
982 | CCCCNC(=O)Cn1c(=O)c2cnc(-c3ccc(Cl)cc3)nc2n(C)c1=O
567 | C=CCNC(=O)c1nc(C(=O)N2CCN(c3ccccn3)CC2)cs1
